Series [1] can be described thus: Plasma Stability. The series is classed as in vitro ADME, human. In a few lines:
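Compounds incubated at 1 μM in fresh human plasma for 1 hour at 37° C, then protein-precipitated with acetonitrile/formic acid containing internal standard. Remaining parent measured by LC-MS/MS in triplicate, expressed as percent of control remaining.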

A short description of series [2]: Caco-2 Permeability Assay. It counts as in vitro ADME, human. The note with it: human. In a few lines: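 Caco-2 monolayers cultured 21 days (TEER >600 […]); test article at 10 μM in HBSS/HEPES pH 7.4 transport medium, dosed apical or basolateral, ±Pgp inhibitor. Incubated 90 min at 37 °C; both compartments quantified by LC-MS/MS. Papp (A→B, B→A), efflux ratio and % recovery calculated.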

Series [3] can be described thus: Stability in Simulated Intestinal Fluid (SIF). The series is classed as in vitro ADME. Set-up: key: % parent compound remaining relative to 0-minute sample. In a few lines: (§1)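 Compound at 2 μg/mL final was incubated at 37 °C with shaking in SGF with pepsin (pH 1.2) or SIF with pancreatin (pH 6.8), sampled from 0 to 60 min. After acetonitrile precipitation, LC-MS/MS gave % parent remaining vs 0 min; half-life came from ln(% remaining) vs time.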

A short description of series [4]: Stability in Simulated Gastric Fluid (SGF). It counts as in vitro ADME. The arrangement: key: % parent compound remaining relative to 0-minute sample. The procedure, abridged:
as §1

Setting [5] is: % remaining at 1 h in human plasma.
Where [6] appears, read: Caco-2, pH 7.4, Caco-2 monolayer.
Setting [7] is: % remaining at 1 h in simulated intestinal fluid.
[8] abbreviates: % remaining at 1 h in simulated gastric fluid.
The mark [9] stands for this setting: % remaining at 1 h, human plasma, 1 μM, 37° C.
Setting [10] is: Caco-2, pH 7.4, donor 10 μM, 90 minutes, 37° C., direction not given.
[11] abbreviates: % remaining at 1 h, SIF with pancreatin pH 6.8, 2 μg/mL, 37° C.
[12] abbreviates: % remaining at 1 h, SGF with pepsin pH 1.2, 2 μg/mL, 37° C.

Molecules are shown by their SMILES.

As a reminder, the Papp is the rate of passage across a membrane or cell layer, normalised by area and donor concentration.

For `CC(C)OCCn1c(=S)[nH]c(=O)c2c1ccn2COC(=O)C1CN(C(=O)OC(C)(C)C)C1` [Example 127], the “human Plasma stability” value in series [1] (setting [5]) is reported as 1% remaining. The apparent permeability coefficient (Papp) at 90 min, 10 µM in series [2] (setting [6]) came to 7.79 ×10⁻⁶ cm/s. Also, in series [3] (setting [7]), the SIF is 6% remaining. For the same compound, the SGF in series [4] (setting [8]) is listed as 80% remaining.
Regarding `CC(C)C[C@H](NC(=O)OC(C)(C)C)C(=O)NCCCCC(=O)OCn1ccc2c1c(=O)[nH]c(=S)n2CCOC(C)C` [Example 26], the “human Plasma stability” value in series [1] (setting [5]) is 32% remaining. Moreover, the Papp at 90 min, 10 µM in series [2] (setting [6]) came to 12.7 ×10⁻⁶ cm/s. Also, the SIF in series [3] (setting [7]) is 66% remaining. Moreover, the SGF in series [4] (setting [8]) is 99% remaining.
With `CC(C)OCCn1c(=S)[nH]c(=O)c2c1ccn2COC(=O)OC(C)C` [Example 90, {4-oxo-1-[2-(propan-2-yloxy)ethyl]-2-sulfanylidene-1H,2H,3H,4H,5H-pyrrolo[3,2-d]pyrimidin-5-yl}methyl propan-2-yl carbonate], in series [1] (setting [9]), the “human Plasma stability” value was 0% remaining. Further, in series [2] (setting [10]), the apparent permeability (Papp) at 90 min, 10 µM is 18 ×10⁻⁶ cm/s. Besides, the SIF in series [3] (setting [11]) is 56% remaining. Also, in series [4] (setting [12]), the SGF is on record as 77% remaining.
With `CC(C)NC(=O)OCSc1nc(=O)c2c(ccn2C(=O)NC(C)C)n1CCOC(C)C` [Example 195], the “human Plasma stability” value in series [1] (% remaining at 1 h in human plasma, the 15th table) was 97% remaining. The compound also yielded an apparent permeability (Papp) at 90 min, 10 µM in series [2] (Caco-2, pH 7.4, Caco-2 monolayer, the 15th table) of 30 ×10⁻⁶ cm/s. Also, the SIF in series [3] (% remaining at 1 h in simulated intestinal fluid, the 15th table) is 99% remaining. Also, in series [4] (% remaining at 1 h in simulated gastric fluid, the 15th table), the SGF is on record as 100% remaining.
Consider `CC(C)OCCn1c(=S)[nH]c(=O)c2c1ccn2COC(=O)[C@@H](N)Cc1ccccc1.O=C(O)C(F)(F)F` [Example 308, trifluoroacetic acid {4-oxo-1-[2-(propan-2-yloxy)ethyl]-2-sulfanylidene-1H,2H,3H,4H,5H-pyrrolo[3,2-d]pyrimidin-5-yl}methyl (2S)-2-amino-3-phenylpropanoate], for which the “human Plasma stability” value in series [1] (% remaining @ 1 h) is reported as 2.5% @ 1 h. This compound also displayed an apparent permeability (Papp) at 90 min, 10 µM in series [2] (Caco-2, pH 7.4) of less than 0.364 ×10⁻⁶ cm/s. In addition, in series [3] (% remaining @ 1 h), the SIF is listed as 44% @ 1 h. For the same compound, the SGF in series [4] (% remaining @ 1 h) is 97% @ 1 h.
On to `CC(C)OCCn1c(=S)[nH]c(=O)c2c1ccn2COC(=O)CCCCNC(=O)[C@H](CCc1ccccc1)NC(=O)OC(C)(C)C.O=C(O)C(F)(F)F` [Example 18], for which the “human Plasma stability” value in series [1] (setting [5]) turned out to be 66% remaining. This compound also returned an apparent permeability (Papp) at 90 min, 10 µM in series [2] (setting [6]) of 7.59 ×10⁻⁶ cm/s. Further, the SIF in series [3] (setting [7]) is listed as 65% remaining. The SGF in series [4] (setting [8]) is recorded as 100%.
Consider `CC(C)OCCn1c(=S)[nH]c(=O)c2c1ccn2C(C)OC(=O)OC1CCN(C(=O)OC(C)(C)C)CC1` (stereo not drawn) [Example 99, tert-Butyl 4-{[(1-{4-oxo-1-[2-(propan-2-yloxy)ethyl]-2-sulfanylidene-1H,2H,3H,4H,5H-pyrrolo[3,2-d]pyrimidin-5-yl}ethoxy)carbonyl]oxy}piperidine-1-carboxylate], for which, in series [1] (setting [9]), the “human Plasma stability” value amounted to 5%. Moreover, the Papp at 90 min, 10 µM in series [2] (setting [10]) turned out to be 0.111 ×10⁻⁶ cm/s. The SIF in series [3] (setting [11]) is 0%. Moreover, in series [4] (setting [12]), the SGF is 0%.
Take `CC(C)OCCn1c(=S)[nH]c(=O)c2c1ccn2COC(=O)[C@@H](N)C(C)C.O=C(O)C(F)(F)F` [Example 296, trifluoroacetic acid {4-oxo-1-[2-(propan-2-yloxy)ethyl]-2-sulfanylidene-1H,2H,3H,4H,5H-pyrrolo[3,2-d]pyrimidin-5-yl}methyl (2S)-2-amino-3-methylbutanoate]: in series [1] (% remaining @ 1 h), the “human Plasma stability” value amounted to 12% @ 1 h. In series [2] (Caco-2, pH 7.4), this compound yielded a Papp at 90 min, 10 µM of 1.18 ×10⁻⁶ cm/s. For the same compound, the SIF in series [3] (% remaining @ 1 h) was 43% @ 1 h. Further, in series [4] (% remaining @ 1 h), the SGF was 97% @ 1 h.
Take `CC(C)OCCn1c2nc(=O)c3c1ccn3COC(=O)C(C)(C)CCCCC(C)(C)C(=O)OCS2` [Example 119, 8,8,13,13-Tetramethyl-22-[2-(propan-2-yloxy)ethyl]-6,15-dioxa-17-thia-4,19,22-triazatricyclo[16.3.1.0^{4,21}]docosa-1(21),2,18-triene-7,14,20-trione]: in series [1] (setting [9]), the “human Plasma stability” value worked out at 90%. This compound registered an apparent permeability (Papp) at 90 min, 10 µM in series [2] (setting [10]) of 31.7 ×10⁻⁶ cm/s. Besides, the SIF in series [3] (setting [11]) is on record as 98%. The SGF in series [4] (setting [12]) is recorded as 94%.

The record behind these values is patent US20240067651A1 (Biohaven Therapeutics Ltd., priority 2019, published 2024).
